In brackets after ≈: the same amount, converted by molar mass.
What was measured:
[1] = system: Salmonella Enteritidis (ATCC 13076); assay: Microtiter plate assay, CPC and propionic acid, 3×3 matrix (Experiment 2); assay type: cell-based; settings: propionic acid alone, previous experimentation
Method: (§1) The 4×4 matrix was either used in its entirety or in an abbreviated format as deemed appropriate by previous research conducted with similar organisms using a mixed organic acid blend.
Eight formulations were prepared using the incomplete 3×3 matrix design in Table 2. […] Positive and negative controls were included as described in Experiment 1.
Propionic acid was obtained from Kemin Americas, Inc (Des Moines, Iowa). S. Enteriditis, S. aureus and E. coli were grown aerobically in either Tryptic Soy Broth (TSB) or Nutrient Broth (NB) for 24 h at 37° C. L. monocytogenes was grown aerobically in Brain Heart Infusion Broth (BHI) for 24 h at 37° C.
Plates were read kinetically over 24 h. The temperature was maintained at 35° C. […] Treatments were prepared in sterile RO at the inclusion levels noted in Tables 1-2.

[2] = system: Staphylococcus aureus (ATCC 25923); assay: Microtiter plate assay, CPC and propionic acid, 4×4 matrix (Experiment 2); assay type: cell-based; settings: S. aureus
Method: as §1
(§2) Fifteen formulations were prepared using the incomplete 4×4 matrix design in Table 3.
(§3) Four test organisms—Salmonella Enteritidis (ATCC 13076), Staphylococcus aureus (ATCC 25923) E. coli O157:H7 (ATCC 35150) and Listeria monocytogenes (ATCC 15313)—were selected for use in these screening assays. […] Propionic acid was obtained from Kemin Americas, Inc (Des Moines, Iowa). S. Enteriditis, S. aureus and E. coli were grown aerobically in either Tryptic Soy Broth (TSB) or Nutrient Broth (NB) for 24 h at 37° C. L. monocytogenes was grown aerobically in Brain Heart Infusion Broth (BHI) for 24 h at 37° C. Test inocula were prepared to achieve a 10^6 cfu/ml suspension of bacterial cells. A Petroff Hausser counting chamber was used to determine the level of inoculum.
An Optimax microtiter plate reader (Molecular Devices, Sunnyvale, Calif.) at 405 nm wavelength was used to measure the optical density of the suspension in each well. Plates were read kinetically over 24 h. The temperature was maintained at 35° C. All results reflect the average optical density measurements of four microtiter wells. Treatments were prepared in sterile RO at the inclusion levels noted in Tables 1-2. […]

[3] = system: E. coli O157:H7 (ATCC 35150); assay: Microtiter plate assay, CPC and propionic acid, abbreviated 4×4 matrix (Experiment 2); assay type: cell-based
Method: as §1, §2, §3
(§4) An Optimax microtiter plate reader (Molecular Devices, Sunnyvale, Calif.) at 405 nm wavelength was used to measure the optical density of the suspension in each well. Plates were read kinetically over 24 h. The temperature was maintained at 35° C. All results reflect the average optical density measurements of four microtiter wells. Treatments were prepared in sterile RO at the inclusion levels noted in Tables 1-2. A 100 μl aliquot of test organism and a 100 μl aliquot of experimental treatment were dispensed into individual microtiter plate wells. […] Positive controls consisting of 100 μl of test organism in NB or BHI and 100 μl of sterile water and a negative control consisting of 100 μl of NB (no organisms) and 100 μl of sterile water were also used.

[4] = system: Salmonella Enteritidis (ATCC 13076); assay: Microtiter plate assay, CPC and acetic acid (Experiment 4); assay type: cell-based; settings: S. Enteritidis, acetic acid treatment alone
Method: Test inocula were prepared to achieve a 10^6 cfu/ml suspension of bacterial cells. A Petroff Hausser counting chamber was used to determine the level of inoculum.
as §4, with “Table 1.” for “Tables 1-2.”, “NB” for “NB or BHI”

[5] = system: Salmonella Enteritidis (ATCC 13076); assay: microbe, parasite or virus in culture; settings: Salmonella enterica, ATCC13076|ENTERITIDIS, 24 h, read-out: Minimum Inhibitory Concentration (MIC)
Method: A Petroff Hausser counting chamber was used to determine the level of inoculum.
An Optimax microtiter plate reader (Molecular Devices, Sunnyvale, Calif.) at 405 nm wavelength was used to measure the optical density of the suspension in each well. Plates were read kinetically over 24 h. The temperature was maintained at 35° C. All results reflect the average optical density measurements of four microtiter wells. […] A 100 μl aliquot of test organism and a 100 μl aliquot of experimental treatment were dispensed into individual microtiter plate wells.

[6] = system: E. coli O157:H7 (ATCC 35150); assay: Microtiter plate assay, CPC and mixed organic acids (Experiment 3); assay type: cell-based
Method: (§5) Fifteen formulations were prepared using the incomplete 4×4 matrix design in Table 8.
(§6) Two test organisms—Salmonella Enteritidis (ATCC 13076) and E. coli O157:H7 (ATCC 35150)—were screened. Salmonella Enteritidis was grown aerobically in Nutrient Broth (NB) for 24 h at 37° C. E. coli was grown in NB for 6 h at 37° C. Test inocula were prepared to achieve a 10^6 cfu/ml suspension of bacterial cells. A Petroff Hausser counting chamber was used to determine the level of inoculum.
(§7) An Optimax microtiter plate reader (Molecular Devices, Sunnyvale, Calif.) at 405 nm wavelength was used to measure the optical density of the suspension in each well. Plates were read kinetically over 24 h. The temperature was maintained at 35° C. All results reflect the average optical density measurements of four microtiter wells. Treatments were prepared in sterile RO at the inclusion levels noted in Table 1. A 100 μl aliquot of test organism and a 100 μl aliquot of experimental treatment were dispensed into individual microtiter plate wells. Bacteria cultures were diluted in Nutrient Broth (NB) prior to inoculation into the wells. Positive controls consisting of 100 μl of test organism in NB and 100 μl of sterile water and a negative control consisting of 100 μl of NB (no organisms) and 100 μl of sterile water were also used.

[7] = system: Salmonella Enteritidis (ATCC 13076); assay: as above; assay type: cell-based
Method: as §5, §6, §7

[8] = system: Listeria monocytogenes (ATCC 15313); assay: Microtiter plate assay, CPC and propionic acid, abbreviated 4×4 matrix (Experiment 2); assay type: cell-based; settings: L. monocytogenes
Method: as §1, §2, §3, §4

## CCC(=O)O [propionic acid]
[1]
  concentration sufficient to inhibit growth: 250 ppm
[2]; propionic acid alone, previous experimentation
  concentration shown to inhibit growth: 250 ppm
[3]; E. coli, propionic acid treatment alone
  concentration that completely inhibited growth: 250 ppm

## CC(=O)O [acetic acid]
[4]
  concentration that completely inhibited growth: 250 ppm

## C=O [37% formaldehyde, formaldehyde]
[5]
  MIC: ~50 µg/mL (≈ 1670 µM)

## CCCCCCCCCCCCCCCC[n+]1ccccc1 [CPC, Cetylpyridinium chloride]
[6]
  mixed organic acids substituted by 1 ppm CPC: 50 ppm
[7]
  mixed acids substituted by 1 ppm CPC: 50 ppm
[2]
  propionic acid substituted by 1 ppm CPC: approximately 200 ppm
[3]; E. coli O157:H7
  propionic acid substituted by 1 ppm CPC: 50 ppm
[8]
  propionic acid substituted by 1 ppm CPC: > 200 ppm

Reference: US20050250821A1, “Quaternary ammonium compounds in the treatment of water and as antimicrobial wash” (priority 2004, published 2005)
